From US20110183975A1, “NOVEL 6-AZAINDOLE AMINOPYRIMIDINE DERIVATIVES HAVING NIK INHIBITORY ACTIVITY” (priority 2008, published 2011)
pIC50: −log10 of the molar value.

How the values were obtained:
[1] = target: T1, Truncated human NIK (Homo sapiens, UniProt Q99558); assay: NIK inhibitory activity: SRPKtide phosphorylation with [γ-33P] ATP, filter plate; assay type: biochemical; settings: GST-tagged truncated human NIK, 20 μM peptide substrate, 10 μM ATP, 25° C., 240 minutes
T1 construct: made in house; host or cells: Sf9 insect cells (baculovirus)
Source text: Truncated human NIK [319-947(end) amino acids of accession number AAH35576] was expressed in sf9 cells as N-terminus gluthatione-S-transferase (GST)-tagged protein using baculovirus expression system. The sf9 cells were harvested and lysed, and then the GST-tagged human NIK protein was applied onto a glutathione column (GSTrap, GE Healthcare) and eluted from the column with reduced glutathione. The active fractions were desalted with a desalting column (PD-10, GE Healthcare) to give a purified enzyme.
For measurement of the activity of NIK, the SRPKtide peptide (Arg-Ser-Arg-Ser-Arg-Ser-Arg-Ser-Arg-Ser-Arg-Ser-Arg-Ser-Arg-NH2) (SEQ.ID.NO.:1) was synthesized as a substrate, as described above.
The phosphorylation reaction was conducted using 384 well plate, and the reaction volume was 10.5 μL/well. The reaction buffer is comprised of 10 mM 3-Morpholinopropanesulfonic acid buffer (pH 7.4), 5 mM magnesium chloride, 1 mM O,O′-Bis (2-aminoethyl) ethyleneglycol-N,N,N′,N′-tetraacetic acid (EGTA) and 1 mM dithiothreitol. Thereto, the purified NIK protein, 20 μM of the peptide substrate, 10 μM of adenosine 5′-triphosphate (ATP) and 0.5 μCi [γ-33P] ATP solution were added, and then the reaction was carried out at 25° C. for 240 minutes. The [γ-33P]-labeled ATP was purchased from PerkinElmer Inc.
After the termination of the reaction by adding 20 μL of 350 mM phosphoric acid (H3PO4), the substrate peptide was adsorbed on a filter plate (Millipore Multiscreen, MZPHN0W50). The substrate-bound filter plate was washed with 130 mM phosphoric acid for several times and then 8 μL of Microscinti-O (PerkinElmer Inc.) was added to the each well. The radiation activity of the peptide was measured with TopCount NXT Microscintillation Counter (PerkinElmer Inc.).
(§1) The compound to be tested was diluted in dimethylsulfoxide (DMSO) and then 0.5 μL of this solution was added to each well. Each control well was provided by adding 0.5 μL of DMSO to the well in place of the DMSO solution containing the compound to be tested.

[2] = target: T2, human ROCK2 catalytic domain (Homo sapiens, UniProt O75116); assay: ROCK2 inhibitory activity: peptide phosphorylation, IMAP fluorescence polarization; assay type: biochemical; settings: for pIC50: His-tagged human ROCK2, 100 nM peptide substrate, 5 μM ATP, 30° C., 150 minutes; for Selectivity of NIK over ROCK2: IC50 for ROCK2 divided by IC50 for NIK
T2 construct: made in house; host or cells: Sf9 insect cells
Source text: cDNA of N-terminal His-tagged human ROCK2 catalytic domain [11-552 amino acids of accession number NP_00004841.2] was integrated into an expression vector, which was then highly expressed in sf9 cells. The sf9 cells were harvested and lysed, and then the His-tagged human ROCK2 protein was applied onto HisTrap HP (GE Healthcare) and eluted from the column with imidazole. The active fractions were desalted with a desalting column (PD-10, GE Healthcare) to give a purified enzyme.
For measurement of the activity of ROCK2, the substrate used was a synthetic peptide (5-FAM (5-carboxyfluorescein)-Ala-Lys-Arg-Arg-Arg-Leu-Ser-Ser-Leu-Arg-Ala-OH) (SEQ.ID.NO.:2) (Trauger J W. et. al, Biochemistry, 41, 8948-8953 (2002)), which was custom-made by JPT Peptide Technologies GmbH.
For detection of phosphorylation of the substrate, IMAP® technology (Molecular Devices, Co. Ltd.) (Gaudet E W. et. al, J. Biomol. Screen, 8, 164-175(2003)) was used.
The phosphorylation reaction was conducted using 384 well plate, and the reaction volume was 10.5 μL/well. The reaction buffer is comprised of 50 mM Tris-chloride buffer (pH 7.5), 10 mM magnesium acetate, 1 mM O,O′-Bis(2-aminoethyl)ethyleneglycol-N,N,N′,N′-tetraacetic acid (EGTA) and 1 mM dithiothreitol. Thereto, the purified ROCK2 protein, 100 nM of the peptide substrate, and 5 μM of adenosine 5′-triphosphate were added, and then the reaction was carried out at 30° C. for 150 minutes.
Thereafter, in order to terminate and detect the reaction, 30 μL of the IMAP (registered trademark) binding reagent (IMAP Progressive Binding Reagent) that had been diluted (1:500) in the 1× IMAP binding buffer A (IMAP Progressive Binding Buffer A, 5× stock) was added to each well. The solution stood still for 30 minutes in the dark, and then fluorescence polarization was measured using a high-end microplate reader (excitation wavelength: 485 nm; emission wavelength: 520 nm).
as §1, with “tested. In Table 3, the selectivity of NIK over ROCK2 was calculated by dividing the value of IC50 for ROCK2 by the value of IC50 for NIK.” for “tested.”

[3] = target: T3, human NIK (U-2 OS Tet-On-NIK cells) (Homo sapiens, UniProt Q99558); assay: Cellular NIK inhibitory activity using ELISA-based IKKalpha phosphorylation assay; assay type: cell-based; settings: NIK dependent IKKalpha phosphorylation, doxycycline 2 micrograms/ml, 24 hours
T3 construct: expressed in transfected cells; host or cells: U-2 OS Tet-On cells carrying NF-kappa B reporter genes, stably transfected with pTRE2hyg-NIK
Protocol: NF-kappa B reporter genes (Clontech Laboratories, Inc.) was introduced into U-2 OS Tet-On cell line (Clontech Laboratories, Inc.) by the co-transfection with puromycin resistance gene (Clontech Laboratories, Inc.). […] NIK protein expression in this established cells (U-2 OS Tet-On-NIK) was controlled in a doxycycline dependent manner. The cells were cultured in DMEM containing 10% FBS, 100 units/ml of penicillin, 0.1 mg of streptomycin sulfate, 100 microgram/ml of hygromycin and 1 microgram/ml of puromycin (Growth medium).
U-2 OS Tet-On-NIK cells were plated on 96-well plate (Nunc) at 20000 cells per well and were incubated overnight at 37° C. in 5% CO2-95% air. The tested compound was diluted in dimethylsulfoxide (DMSO) and further diluted with a growth medium. Then the compound solution and doxycycline (Clontech Laboratories, Inc.) solution (final working concentration is 2 micrograms/ml) were simultaneously added to the each well. […]
Rabbit anti-IKKalpha [pSpS176/180] phosphospecific antibody (Biosource International, Inc.) or rabbit anti-IKKalpha antibody (Abcam, Inc.) was incubated on wells of an MAXISORP ELISA plate (Nunc) at 4° C. for overnight. […] After stopping HRP-reactions (SureBlue Reserve™ TMB substrate, Kirkegaard & Perry Laboratories, Inc.) by 1N hydrochloric acid, the optical density in each well was determined using a SpectraMax Plus 384 (Molecular Devices Corporation) at 450 nm.
Cellular NIK inhibitory activity of the test compound was represented as IC50 value determined by the following procedure.
Optical density of phospho-IKKalpha in each sample was normalized using the ratio of phospho-IKKalpha to total IKKalpha. The % of Control value was calculated by the following equation. […]
Then the IC50 value for NIK dependent IKKalpha phosphorylation was determined.

T1 sequence (Q99558 319-947): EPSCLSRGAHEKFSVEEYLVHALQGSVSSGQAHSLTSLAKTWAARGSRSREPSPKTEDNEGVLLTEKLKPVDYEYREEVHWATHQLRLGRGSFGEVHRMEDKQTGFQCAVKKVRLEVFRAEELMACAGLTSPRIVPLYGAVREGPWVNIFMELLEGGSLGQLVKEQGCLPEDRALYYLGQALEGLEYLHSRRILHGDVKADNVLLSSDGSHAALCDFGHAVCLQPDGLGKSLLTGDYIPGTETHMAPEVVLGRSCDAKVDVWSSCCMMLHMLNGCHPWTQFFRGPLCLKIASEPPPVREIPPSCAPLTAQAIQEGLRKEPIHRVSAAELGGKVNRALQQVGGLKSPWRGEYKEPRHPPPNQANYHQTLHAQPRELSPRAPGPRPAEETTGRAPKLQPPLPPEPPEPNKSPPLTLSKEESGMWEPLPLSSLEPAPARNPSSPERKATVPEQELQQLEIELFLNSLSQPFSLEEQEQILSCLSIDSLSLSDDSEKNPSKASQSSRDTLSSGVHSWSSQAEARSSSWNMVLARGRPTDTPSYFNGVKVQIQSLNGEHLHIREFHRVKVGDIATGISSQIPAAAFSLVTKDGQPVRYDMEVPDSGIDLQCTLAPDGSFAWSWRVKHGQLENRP
T3 sequence (Q99558 whole entry): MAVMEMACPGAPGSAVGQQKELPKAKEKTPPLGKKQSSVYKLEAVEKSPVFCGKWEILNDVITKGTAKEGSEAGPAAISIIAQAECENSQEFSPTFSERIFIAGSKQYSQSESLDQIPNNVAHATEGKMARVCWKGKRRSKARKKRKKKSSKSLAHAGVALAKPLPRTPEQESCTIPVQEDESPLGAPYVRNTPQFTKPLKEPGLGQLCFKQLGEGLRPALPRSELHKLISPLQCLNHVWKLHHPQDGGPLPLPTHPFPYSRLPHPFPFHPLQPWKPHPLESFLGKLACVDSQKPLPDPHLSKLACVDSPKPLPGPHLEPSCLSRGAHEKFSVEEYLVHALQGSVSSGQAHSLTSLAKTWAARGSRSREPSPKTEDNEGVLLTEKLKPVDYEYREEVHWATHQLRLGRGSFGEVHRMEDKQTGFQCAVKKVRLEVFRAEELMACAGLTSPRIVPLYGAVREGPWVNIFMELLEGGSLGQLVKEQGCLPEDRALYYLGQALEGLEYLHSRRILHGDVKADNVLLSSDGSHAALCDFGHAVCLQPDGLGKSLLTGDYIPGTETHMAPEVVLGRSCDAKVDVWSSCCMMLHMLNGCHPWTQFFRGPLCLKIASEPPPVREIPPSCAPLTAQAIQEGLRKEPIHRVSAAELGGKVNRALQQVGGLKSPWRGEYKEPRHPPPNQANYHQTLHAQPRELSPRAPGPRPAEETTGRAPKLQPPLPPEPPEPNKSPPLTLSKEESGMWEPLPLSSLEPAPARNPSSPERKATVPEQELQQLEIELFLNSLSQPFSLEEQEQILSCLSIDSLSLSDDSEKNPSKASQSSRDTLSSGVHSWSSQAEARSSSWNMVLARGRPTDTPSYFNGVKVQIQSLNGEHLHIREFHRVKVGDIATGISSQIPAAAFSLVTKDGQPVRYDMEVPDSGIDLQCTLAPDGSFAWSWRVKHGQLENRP
T2 sequence (O75116 11-552): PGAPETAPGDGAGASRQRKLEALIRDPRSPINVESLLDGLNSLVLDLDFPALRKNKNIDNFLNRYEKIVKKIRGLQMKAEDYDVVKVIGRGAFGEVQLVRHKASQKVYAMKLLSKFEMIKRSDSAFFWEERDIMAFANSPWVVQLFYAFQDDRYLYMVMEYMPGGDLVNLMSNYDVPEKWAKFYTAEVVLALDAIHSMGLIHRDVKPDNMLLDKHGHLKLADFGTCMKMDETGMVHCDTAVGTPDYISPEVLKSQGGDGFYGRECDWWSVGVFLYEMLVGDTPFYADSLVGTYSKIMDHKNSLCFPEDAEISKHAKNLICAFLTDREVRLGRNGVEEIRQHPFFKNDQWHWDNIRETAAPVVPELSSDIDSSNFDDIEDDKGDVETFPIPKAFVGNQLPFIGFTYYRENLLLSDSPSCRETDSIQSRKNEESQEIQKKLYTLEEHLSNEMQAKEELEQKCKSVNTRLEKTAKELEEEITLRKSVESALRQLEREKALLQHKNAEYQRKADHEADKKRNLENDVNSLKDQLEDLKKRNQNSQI

Structure (SMILES) | pIC50 [1] | pIC50 [2] | Selectivity of NIK over ROCK2 [2] | pIC50 [3]
CC(C)n1cc(-c2ccnc(Nc3ccccc3)n2)c2ccncc21 [Example 3, [4-(1-Isopropyl-1H-pyrrolo[2,3-c]pyridin-3-yl)-pyrimidin-2-yl]-phenyl-amine] | 6.37 | 7.07 | 0.20 | –
CNC(=O)c1ccc(OC)c(Nc2nccc(-c3cn(C(C)C)c4cnccc34)n2)c1 [Example 71, 3-[4-(1-Isopropyl-1H-pyrrolo[2,3-c]pyridin-3-yl)-pyrimidin-2-ylamino]-4-methoxy-N-methyl-benzamide] | 7.58 | 5.34 | 173.3 | 6.70
Cc1ccc(C(N)=O)cc1Nc1nccc(-c2cn(C(C)C)c3cnccc23)n1 [Example 85, 3-[4-(1-Isopropyl-1H-pyrrolo[2,3-c]pyridin-3-yl)-pyrimidin-2-ylamino]-4-methyl-benzamide] | 7.20 | 5.59 | 40.9 | 6.85
CC(C)n1cc(-c2ccnc(Nc3cc(C(N)=O)ccc3OCc3ccccc3)n2)c2ccncc21 [Example 94, 4-Benzyloxy-3-[4-(1-isopropyl-1H-pyrrolo[2,3-c]pyridin-3-yl)-pyrimidin-2-ylamino]-benzamide] | 7.07 | 6.00 | 11.9 | 6.64
